Where “and” joins values, the source holds several entries; their conditions need not be identical. Equal entries are not always repeated. Where two headings read alike, the source gives them in different places. Blank lines part the entries; values can stand above or below the molecule they belong to. *1 amine or outer side, *2 acyl side, *3 side chain or, on linkers, in order; H or OH if unused. Where a SMILES comes first, the peptide text is derived from it. Side-chain parts run from the residue outwards. [ ]: non-standard residue; d: D form. The star is where a group is joined. ξ: configuration not given here. ξOrn(Nα-γGlu(Nα-CO-Glu)) = O=C(O)CC[C@H](NC(=O)N[C@@H](CCC(=O)NC(CCCN*)C(=O)O)C(=O)O)C(=O)O; DOTAGA = O=C(O)CN1CCN(CC(=O)O)CCN(C(CCC(=O)*)C(=O)O)CCN(CC(=O)O)CC1; Phe(4-NO2) = N[C@@H](Cc1ccc([N+](=O)[O-])cc1)C(=O)O; X1 = O=C(c1ccc([N+](=O)[O-])cc1[N+](=O)[O-])*; d2Nal = N[C@H](Cc1ccc2ccccc2c1)C(=O)O; Suc = O=C(CCC(=O)[*:2])[*:1]; Dap = NC[C@H](N)C(=O)O
What was measured:
LNCaP cells = test: Internalization into LNCaP cells, relative cellular uptake to ([^125I]I-BA)KuE; type: cell-based; settings: c = 1.0 nM ^177Lu-labeled inhibitor, 37° C., 60 min, corrected for non-specific binding (10 μM 2-PMPA), mean ± SD (n = 3)
Experimental: PSMA-positive LNCAP cells (300265; Cell Lines Service GmbH) were cultivated in Dulbecco modified Eagle medium/Nutrition Mixture F-12 (1/1) (DMEM-F12, Biochrom) supplemented with fetal calf serum (FCS) (10%, Biochrom) and kept at 37° C. in a humidified CO2 atmosphere (5%). One day (24 h±2 h) prior to all experiments with LNCaP cells, the cultivated cells were harvested using a mixture of trypsin/ethylendiaminetetraacetate (0.05%/0.02%) and PBS and centrifuged. After centrifugation, the supernatant was disposed and the cell pellet resuspended in culture medium. Afterwards, cells were counted with a hemocytometer (Neubauer) and seeded in 24-well plates.
Subsequent to the removal of the culture medium, the cells were washed once with DMEM-F12-solution (500 μL, 5% BSA) and left to equilibrate for at least 15 min at 37° C. in DMEM-F12-solution (200 μL, 5% BSA). Afterwards, each well was treated with either DMEM-F12-solution (25 μL, 5% BSA) or 2-PMPA-solution (25 μL, 100 μm) for blockade. […] The experiment was terminated by placing the 24-well plate on ice for 3 min and the consecutive removal of the medium. Each well was rinsed with HBSS (250 μL) and the fractions from these first two steps combined, representing the amount of free radioligand. Removal of surface bound activity was accomplished by incubation of the cells with ice-cold 2-PMPA-solution (250 μL, 10 μm in PBS) for 5 min and subsequent rinsing with ice-cold PBS (250 μL). The internalized activity was determined through incubation of the cells in NaOH (250 μL, 1.0 m) and the combination with the fraction of the subsequent washing step with again NaOH (250 μL, 1.0 m). Each experiment (control and blockade) was performed in triplicate for each time point. Free, surface bound and internalized activity was quantified in a γ-counter.

[1] = Lipophilicity, logP in n-octanol/PBS of radiolabeled PSMA inhibitors; type: physicochemical; settings: pH 7.4
Experimental: The radiolabeled PSMA inhibitor (0.5 to 1.0 MBq) dissolved in PBS (500 μL, pH=7.4), was added to n-octanol (500 μL) in a reaction vial (1.5 mL), which was rigorously vortexed for 3 min (n=6). For quantitative phase separation, the mixture was centrifuged at 6,000 g for 5 min (Biofuge 15, Heraus Sepatech, Osterode, Germany). The activity from samples of each phase (100 μL) were measured in a γ-counter to obtain the log P(o/w) value.

HSA = target: T1, HSA (Homo sapiens, UniProt P02768); test: HSA binding on Chiralpak HSA column; type: in vitro ADME
T1 construct: purchased Daicel Chemical Industries / Chiral Technologies Europe (Illkirch, France)
Experimental: HSA binding experiments were performed as previously described. […] For each run, 10 μL of the solution containing the inhibitor was injected into the RP-HPLC system and the retention time measured. […] Non-linear regression was established with OriginPro 2016G.

LNCaP-tumor xenograft = test: Biodistribution in LNCaP-tumor xenograft bearing CB-17 SCID mice; type: in vivo; settings: mouse, in vivo
Experimental: All animal experiments were carried out in accordance with the general animal welfare regulations in Germany (Deutsches Tierschutzgesetz, approval #55.2-1-54-2532-71-13). For the tumor model, LNCaP cells (approx. 10^7 cells) were suspended in serum-free DMEM-F12 medium and Matrigel (1/1; v/v) (BD Biosciences, Germany) and inoculated onto the right shoulder of male, 6 to 8 weeks old CB-17 SCID mice (Charles River Laboratories, Sulzfeld, Germany). Animals were used after the tumor size reached 4 to 8 mm in diameter for experiments.

[2] = distribution coefficient in n-octanol/PBS, radiolabeled inhibitor, mean ± SD (n = 6), read-out: logP

T1 sequence (P02768 25-609): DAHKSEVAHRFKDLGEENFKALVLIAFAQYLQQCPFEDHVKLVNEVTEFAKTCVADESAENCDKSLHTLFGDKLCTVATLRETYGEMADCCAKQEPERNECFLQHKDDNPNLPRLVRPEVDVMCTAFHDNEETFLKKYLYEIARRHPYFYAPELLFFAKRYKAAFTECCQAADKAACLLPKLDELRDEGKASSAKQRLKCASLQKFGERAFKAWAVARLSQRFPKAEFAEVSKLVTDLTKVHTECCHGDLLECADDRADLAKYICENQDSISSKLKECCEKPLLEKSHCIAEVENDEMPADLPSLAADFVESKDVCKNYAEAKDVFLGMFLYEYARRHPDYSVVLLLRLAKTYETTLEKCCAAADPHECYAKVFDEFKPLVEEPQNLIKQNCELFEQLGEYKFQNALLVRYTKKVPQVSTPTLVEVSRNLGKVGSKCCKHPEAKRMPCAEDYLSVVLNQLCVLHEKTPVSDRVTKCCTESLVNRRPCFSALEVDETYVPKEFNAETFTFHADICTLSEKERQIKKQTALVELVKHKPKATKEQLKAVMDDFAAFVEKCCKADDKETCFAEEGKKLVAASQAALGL

Compound: O=C(O)CC[C@H](NC(=O)N[C@@H](CCC(=O)NC(CCCNC(=O)c1ccc(NC(=O)CC[C@@H](NC(=O)[C@@H](Cc2ccc3ccccc3c2)NC(=O)[C@@H](Cc2ccc(O)cc2)NC(=O)[C@H](CNC(=O)CCC(C(=O)O)N2CCN(CC(=O)O)CCN(CC(=O)O)CCN(CC(=O)O)CC2)NC(=O)c2ccc([N+](=O)[O-])cc2[N+](=O)[O-])C(=O)O)cc1)C(=O)O)C(=O)O)C(=O)O (stereo partly drawn) [PSMA-65, 2,4-DNBA-Dap(DOTAGA)y-2-nal-e(Abz-N^5-orn-C^4-EuE)]
Internalization (LNCaP cells; listed as [^nat/177Lu]PSMA-65): 340.2 ± 19.9% and 340.2 ± 18.9% | logP [1, 2]: -4.15 ± 0.08 | HSA (albumin binding) (HSA; after logarithmic plotting and calibration (n = 1), listed as [^nat/177Lu]PSMA-65): 98.7%

Compound: O=C(O)CC[C@H](NC(=O)N[C@@H](CCC(=O)NC(CCCNC(=O)CCC(=O)NCCCC[C@@H](NC(=O)[C@@H](Cc1ccc2ccccc2c1)NC(=O)[C@@H](Cc1ccc(O)cc1)NC(=O)[C@H](CNC(=O)CCC(C(=O)O)N1CCN(CC(=O)O)CCN(CC(=O)O)CCN(CC(=O)O)CC1)NC(=O)c1ccc([N+](=O)[O-])cc1[N+](=O)[O-])C(=O)O)C(=O)O)C(=O)O)C(=O)O (stereo partly drawn) [PSMA-53, 2,4-DNBA-Dap(DOTAGA)-y-2-nal-k(Suc-N^5-orn-C^4-EuE)] (X1-[Dap](DOTAGA)[dY][d2Nal][dK]([Suc-ξOrn(Nα-γGlu(Nα-CO-Glu))])-OH)
Internalization (LNCaP cells): 293.6 ± 10.0% | logP [1, 2]: -4.08 ± 0.04 | HSA (albumin binding) (HSA; after logarithmic plotting and calibration (n = 1)): 95.9%

Now from value to molecule, other results behind:

logP [1]: -4.11 ± 0.07 | HSA (albumin binding) (HSA; human, 0.5 mg/mL): 95.4%
Compound: O=C(O)CC[C@H](NC(=O)N[C@@H](CCC(=O)NC(CCCNC(=O)CCC(=O)NCCCC[C@@H](NC(=O)[C@@H](Cc1ccc2ccccc2c1)NC(=O)[C@@H](Cc1ccc(O)cc1)NC(=O)[C@H](Cc1ccc([N+](=O)[O-])cc1)NC(=O)CCC(C(=O)O)N1CCN(CC(=O)O)CCN(CC(=O)O)CCN(CC(=O)O)CC1)C(=O)O)C(=O)O)C(=O)O)C(=O)O (stereo partly drawn) [PSMA-52, DOTAGA-F(4-NO2)-y-2-nal-k(Suc-N^5-orn-C^4-EuE)] ({DOTAGA}-[Phe(4-NO2)][dY][d2Nal][dK]([Suc-ξOrn(Nα-γGlu(Nα-CO-Glu))])-OH)
Internalization (LNCaP cells): 229.9 ± 8.0%

logP [1]: -4.13 ± 0.09 | HSA (albumin binding) (HSA; human, 0.5 mg/mL): 98.2% | adrenal g. (LNCaP-tumor xenograft; male, CB-17 SCID, 24 h): 0.32 ± 0.15 % ID/g | blood (LNCaP-tumor xenograft; male, CB-17 SCID, 24 h): 0.008 ± 0.001 % ID/g | bone (LNCaP-tumor xenograft; male, CB-17 SCID, 24 h): 0.04 ± 0.02 % ID/g | brain (LNCaP-tumor xenograft; male, CB-17 SCID, 24 h): 0.01 ± 0.002 % ID/g | heart (LNCaP-tumor xenograft; male, CB-17 SCID, 24 h): 0.07 ± 0.01 % ID/g | intestine (LNCaP-tumor xenograft; male, CB-17 SCID, 24 h): 0.27 ± 015 % ID/g | liver (LNCaP-tumor xenograft; male, CB-17 SCID, 24 h): 0.38 ± 0.14 % ID/g | lung (LNCaP-tumor xenograft; male, CB-17 SCID, 24 h): 0.05 ± 0.01 % ID/g | muscle (LNCaP-tumor xenograft; male, CB-17 SCID, 24 h): 0.01 ± 0.001 % ID/g | pancreas (LNCaP-tumor xenograft; male, CB-17 SCID, 24 h): 0.15 ± 0.15 % ID/g | spleen (LNCaP-tumor xenograft; male, CB-17 SCID, 24 h): 0.27 ± 0.15 % ID/g | stomach (LNCaP-tumor xenograft; male, CB-17 SCID, 24 h): 0.20 ± 0.10 % ID/g | t/blood (LNCaP-tumor xenograft; male, CB-17 SCID, 24 h): 1786.3 | t/kidney (LNCaP-tumor xenograft; male, CB-17 SCID, 24 h): 0.4 | t/liver (LNCaP-tumor xenograft; male, CB-17 SCID, 24 h): 37.6 | t/muscle (LNCaP-tumor xenograft; male, CB-17 SCID, 24 h): 1429.0 | tumor (LNCaP-tumor xenograft): highest tumor uptake
Compound: O=C(O)CC[C@H](NC(=O)N[C@@H](CCC(=O)NC(CCCNC(=O)C[C@@H](NC(=O)c1cc(C(=O)O)cc(C(=O)O)c1)C(=O)NCCCC[C@@H](NC(=O)[C@@H](Cc1ccc2ccccc2c1)NC(=O)[C@@H](Cc1ccc(O)cc1)NC(=O)[C@H](Cc1ccc2ccccc2c1)NC(=O)CCC(C(=O)O)N1CCN(CC(=O)O)CCN(CC(=O)O)CCN(CC(=O)O)CC1)C(=O)O)C(=O)O)C(=O)O)C(=O)O (stereo partly drawn) [PSMA-71, DOTAGA-2-Nal-y-2-nal-k(d[N^5-orn-C^4-EuE]-TMA)]
Internalization (LNCaP cells; listed as [^177Lu]PSMA-71): 206.8±1.7% | Internalization (LNCaP cells; listed as [^nat/177Lu]PSMA-71): 206.8 ± 1.7%

logP [1]: -4.01 ± 0.11 | adrenal gland (LNCaP-tumor xenograft; male, CB-17 SCID, 1 h): 5.66 ± 1.66 % ID/g | blood (LNCaP-tumor xenograft; male, CB-17 SCID, 1 h): 0.46 ± 0.06 % ID/g | bone (LNCaP-tumor xenograft; male, CB-17 SCID, 1 h): 0.29 ± 0.14 % ID/g | brain (LNCaP-tumor xenograft; male, CB-17 SCID, 1 h): 0.03 ± 0.01 % ID/g | heart (LNCaP-tumor xenograft; male, CB-17 SCID, 1 h): 0.57 ± 0.11 % ID/g | intestine (LNCaP-tumor xenograft; male, CB-17 SCID, 1 h): 0.30 ± 0.08 % ID/g | liver (LNCaP-tumor xenograft; male, CB-17 SCID, 1 h): 0.99 ± 0.19 % ID/g | lung (LNCaP-tumor xenograft; male, CB-17 SCID, 1 h): 1.47 ± 0.25 % ID/g | muscle (LNCaP-tumor xenograft; male, CB-17 SCID, 1 h): 0.17 ± 0.02 % ID/g | pancreas (LNCaP-tumor xenograft; male, CB-17 SCID, 1 h): 0.56 ± 0.07 % ID/g | spleen (LNCaP-tumor xenograft; male, CB-17 SCID, 1 h): 20.53 ± 6.79 % ID/g | stomach (LNCaP-tumor xenograft; male, CB-17 SCID, 1 h): 0.35 ± 0.10 % ID/g | tumor (LNCaP-tumor xenograft; male, CB-17 SCID, 1 h): 8.21 ± 0.23 % ID/g | tumor/blood (LNCaP-tumor xenograft; male, CB-17 SCID, 1 h): 17.8 | tumor/kidney (LNCaP-tumor xenograft; male, CB-17 SCID, 1 h): 0.05 | tumor/muscle (LNCaP-tumor xenograft; male, CB-17 SCID, 1 h): 48.3
Compound: Nc1ccc(C[C@@H](NC(=O)CCC(C(=O)O)N2CCN(CC(=O)O)CCN(CC(=O)O)CCN(CC(=O)O)CC2)C(=O)N[C@H](Cc2ccc(O)cc2)C(=O)N[C@H](Cc2ccc3ccccc3c2)C(=O)N[C@H](CCCCNC(=O)CCC(=O)NCCCC(NC(=O)CC[C@H](NC(=O)N[C@@H](CCC(=O)O)C(=O)O)C(=O)O)C(=O)O)C(=O)O)cc1 (stereo in doubt) [PSMA-49, DOTAGA-F(4-NH2)y-2-nal-k(Suc-N^5-orn-C^4-EuE)]
Internalization (LNCaP cells): 245.0 ± 4.2%

Reference: US11497819B2, “PSMA ligands for imaging and endoradiotherapy” (priority 2017, dated 2022)
